A short description of one series: Delivery of fluorescent (FAM-tagged) peptide across chicken egg epithelial membrane with polyamine/amine carrier. Conditions: fold versus control without carrier; Example 5.
In the case of `NCCCNCCNCCCN` [1,2-Bis(3-aminopropylamino)ethane], the “amount of peptide transported across the membrane compared with the control test” value (shortened to “amount … compared with the control test”) is listed as “twice as much peptide”.
Turning to `NCCCCNCCCN` [Spermidine], the “amount … compared with the control test” value is “five times more peptide”.
On the same count and under the same terms, as for `NCCCNCCCCNCCCN` [Spermine], the entry is “twice as much peptide”.
Same read-out and setting: as for `NCCCNCCCN` [Bis(3-aminopropyl)amine], the entry is “five times more peptide”.
As to `NCCCNCCCNCCCN` [N,N′-Bis(3-aminopropyl)-1,3-propanediamine], the “amount … compared with the control test” value is on record as “five times more peptide”.

Another series in a line: Delivery of fluorescence-labelled bevacizumab across chicken egg epithelial membrane with polyamine/amine carrier. Particulars: Table 3; fluorescence-labelled bevacizumab with the named polyamine or amine moiety; methodology of Example 1.
With `NCCCN` [1,3-Diaminopropane], the “% peptide transported across membrane” value is reported as 4.4%.

The same series, now with this note: fold versus control without carrier; Example 5.
As to `NCCCNCCCN` [Bis(3-aminopropyl)amine], the “amount of bevacizumab transported across the membrane compared to the control sample” value is on record as “more than twice as much”.
Consider `NCCCCCN` [Cadaverine], for which the “amount of bevacizumab transported across the membrane compared to the control sample” value is listed as “more than twice as much”.

Staying with this series, now noted: versus control without carrier; Example 5.
In the case of `NCCCN` [1,3-Diaminopropane], the “improvement in the amount of bevacizumab transported across the membrane” value is reported as “did not significantly improve”.
The same measure, in the same setting: for `NCCN` [Ethylenediamine] the value was “did not significantly improve”.

Experiment in a further series: not given
Particulars: chicken, 60 seconds.
For the compound `N=C(N)N` [Guanidine], the “% peptide transported across membrane” value was determined as 7.9%.
The same measure, in the same setting: for `NCCc1ccc(O)cc1` [Tyramine] the value was 11.3%; for `NCCNCCNCCNCCN` [Tetraethylenepentamine], 28.8%; for `CC(C)N(CCN)C(C)C` [N,N-Diisopropylethylenediamine], 3.3%.
Turning to `NCCN(CCN)CCN` [Tris(2-aminoethyl)amine], the “% peptide transported across membrane” value worked out at 41.0%.

Another series can be described thus: Delivery of lutein across chicken egg epithelial membrane with polyamine/amine carrier.
Details: not given
As to the method: The membrane was washed in deionized water.
Lutein is a naturally occurring carotenoid that reduces the progression of age-related macular degeneration and cataracts. Lutein has a characteristic absorbance which can be measured using a plate reader, and thus it was not necessary to label the lutein with FAM. The absorbance of the solution which had crossed the membrane was measured and compared to the absorbance of the stock solution.
On to `NCCC(=O)N[C@@H](Cc1cnc[nH]1)C(=O)O` [L-Carnosine], for which the “% peptide transported across membrane” value is given as 7.4% and the “amount of lutein transported across the membrane (bound stated in text)” value (shortened to “amount … (bound stated in text)”) is reported as over 5%.
On to `CCN(CC)CC` [Triethylamine], for which the “improvement in the amount of lutein transported across the membrane” value was “did not significantly improve”.
As to `CNCCN` [N-Methylethylenediamine], the “% peptide transported across membrane” value stood at 20.9% and the “amount … (bound stated in text)” value is listed as over 20%.
In the case of `NC(N)=O` [Urea], the “% peptide transported across membrane” value stood at 1.7%.

Still in this series, the particulars now being: Table 2; lutein with the named polyamine or amine moiety; methodology of Example 1.
In the case of `NCCCN` [1,3-Diaminopropane], the “% peptide transported across membrane” value is recorded as 0.2%.

Still in this series, the particulars now being: chicken, 60 seconds.
Turning to `NCCCNCCNCCCN` [1,2-Bis(3-aminopropylamino)ethane], the “% peptide transported across membrane” value was determined as 22.0% and the “amount … (bound stated in text)” value is reported as over 20%.
For the compound `NCCCCNCCCN` [Spermidine], the “% peptide transported across membrane” value is reported as 25.7% and the “amount … (bound stated in text)” value is recorded as over 20%.
For `N=C(N)N` [Guanidine] the same measures were 8.0% and over 5%.
For `NCCc1ccc(O)cc1` [Tyramine] the same measures were 14.1% and over 5%.
For `CCCCNCCCC` [Dibutylamine] the same measures were 10.7% and over 5%.
Turning to `CCN(CC)CC` [Triethylamine], the “% peptide transported across membrane” value is reported as 2.2%.
For `NCCNCCNCCNCCN` [Tetraethylenepentamine], the “% peptide transported across membrane” value is 11.5% and the “amount … (bound stated in text)” value is on record as over 5%.
With `CC1=C[C@H](O)CC(C)(C)[C@H]1/C=C/C(C)=C/C=C/C(C)=C/C=C/C=C(C)/C=C/C=C(C)/C=C/C1=C(C)C[C@@H](O)CC1(C)C` [lutein, Lutein, reference compound], the “lutein crossed the membrane” value is listed as “about 6%” and the “lutein transported across the membrane” value is on record as 0.5%.
On to `NCCCNCCCCNCCCN` [Spermine], for which the “% peptide transported across membrane” value is listed as 27.8% and the “amount … (bound stated in text)” value is reported as over 20%.
For `CC(C)N(CCN)C(C)C` [N,N-Diisopropylethylenediamine] the same measures were 6.7% and over 5%.
For `CNCCCN` [3-(Methylamino)propylamine], in that order: 6.5% and over 5%.
With `NCCN(CCN)CCN` [Tris(2-aminoethyl)amine], the “% peptide transported across membrane” value was found to be 4.7%.
Consider `NCCCCN` [Putrescine], for which the “% peptide transported across membrane” value worked out at 12.7% and the “amount … (bound stated in text)” value is reported as over 5%.
Turning to `NCCN` [Ethylenediamine], the “% peptide transported across membrane” value came to 2.3%.
As to `NCCCNCCCNCCCN` [N,N′-Bis(3-aminopropyl)-1,3-propanediamine], the “% peptide transported across membrane” value was determined as 19.5% and the “amount … (bound stated in text)” value is over 5%.

Still in this series, the particulars now being: versus control without carrier; Example 5.
Consider `NCCCN` [1,3-Diaminopropane], for which the “improvement in the amount of lutein transported across the membrane” value was “did not significantly improve”.
The same measure, in the same setting: as for `NCCN` [Ethylenediamine], the entry is “did not significantly improve”.

A further series is described as follows: Delivery of fluorescence-labelled bevacizumab into the posterior segment of ex vivo porcine eyes. The class given is in vitro ADME. Conditions: various incubation times. How it is done:
Further tests on porcine eyes was carried out with fluorescence-labelled bevacizumab. […] The same methodology as described in Example 3 was used, but with various incubation times.
For `NCCCCNCCCN` [Spermidine], the “effect of longer incubation time on amount of bevacizumab transported into the eye tissue” value was “increased with increasing incubation time”.
On to `NCCCNCCCCNCCCN` [Spermine], for which the “effect of longer incubation time on amount of bevacizumab transported into the eye tissue” value is given as “did not result in higher delivery”.

Experiment in the next series: not given
Conditions: chicken, 60 seconds. This is another data set of the same source.
For `NCCCNCCNCCCN` [1,2-Bis(3-aminopropylamino)ethane], the “% peptide transported across membrane” value is given as 14.1%.
Take `NCCCCNCCCN` [Spermidine]: the “% peptide transported across membrane” value was determined as 22.3%.
As to `N=C(N)N` [Guanidine], the “% peptide transported across membrane” value came to 4.0%.
Still for that read-out and setting: for `NCCc1ccc(O)cc1` [Tyramine] the value was 5.8%.
In the case of `CCCCNCCCC` [Dibutylamine], the “% peptide transported across membrane” value was 4.0%.
Same read-out and setting: for `CCN(CC)CC` [Triethylamine] the value was 7.1%.
Take `NCCNCCNCCNCCN` [Tetraethylenepentamine]: the “% peptide transported across membrane” value is 19.7%.
Take `NCCCNCCCCNCCCN` [Spermine]: the “% peptide transported across membrane” value came out at 28.1%.
Still for that read-out and setting: as for `CC(C)N(CCN)C(C)C` [N,N-Diisopropylethylenediamine], the figure is 9.1%.
The same measure, in the same setting: as for `CNCCCN` [3-(Methylamino)propylamine], the figure is 3.4%.
As to `NCCN(CCN)CCN` [Tris(2-aminoethyl)amine], the “% peptide transported across membrane” value is 11.4%.
For the compound `NCCCCN` [Putrescine], the “% peptide transported across membrane” value came to 6.9%.
Same read-out and setting: as for `NCCN` [Ethylenediamine], the figure is 5.7%; as for `NCCCNCCCNCCCN` [N,N′-Bis(3-aminopropyl)-1,3-propanediamine], 32.4%.

The record behind these values is patent US20250281617A1, “Drug Delivery System” (The University of Birmingham, priority 2019, published 2025).
